Consider 12 compounds from ChEMBL document CHEMBL4393657, “Tetrazole hybrids and their antifungal activities” (2019).

≈ marks a conversion by molar mass, not a printed value. A value given as a limit tells only on which side of the number the result lay.

Holding throughout (format): functional
The subject of assay [1] is Candida albicans. Kind of assay: Antifungal activity against Candida albicans assessed as reduction in fungal cell growth incubated for 24 and 72 hrs by cup plate method.
In assay [2] the test system is Candida albicans. Kind of assay: Antifungal activity against Candida albicans MTCC 227 assessed as reduction in fungal cell growth incubated for 24 and 48 hrs by broth microdilution method. Background: Broth dilution looks for growth in wells or tubes with falling amounts of substance.
In assay [3] the test system is Aspergillus flavus. Nature of the assay: Antifungal activity against Aspergillus flavus assessed as reduction in fungal cell growth incubated for 24 and 72 hrs by cup plate method.
Assay [4] has as its system Candida albicans. Nature of the assay: Antifungal activity against Candida albicans assessed as reduction in fungal cell growth incubated for 48 hrs by broth microdilution method.
For assay [5], the system named is Candida tropicalis. Kind of assay: Antifungal activity against Candida tropicalis assessed as reduction in fungal cell growth incubated for 48 hrs by broth microdilution method.
Assay [6] concerns Aspergillus flavus. Kind of assay: Antifungal activity against Aspergillus flavus NCIM 524 assessed as reduction in fungal cell growth incubated for 3 to 4 days by disk diffusion method. In general terms: Agar diffusion results depend on both activity and mobility in agar.
In another assay the test system is Talaromyces marneffei. Nature of the assay: Antifungal activity against Penicillium marneffei assessed as reduction in fungal cell growth incubated for 3 to 4 days by disk diffusion method.
Assay [7] deals with Aspergillus niger. Nature of the assay: Antifungal activity against Aspergillus niger assessed as reduction in fungal cell growth incubated for 72 hrs by broth microdilution method.
The test system of assay [8] is Trichophyton mentagrophytes. Nature of the assay: Antifungal activity against Trichophyton mentagrophytes assessed as reduction in fungal cell growth incubated for 3 to 4 days by disk diffusion method.
In assay [9] the test system is Aspergillus fumigatus. Nature of the assay: Antifungal activity against Aspergillus fumigatus NCIM 902 assessed as reduction in fungal cell growth incubated for 3 to 4 days by disk diffusion method.
Assay [10] deals with Nakaseomyces glabratus. Kind of assay: Antifungal activity against Candida glabrata assessed as reduction in fungal cell growth incubated for 48 hrs by broth microdilution method.
The subject of the next assay is Candida parapsilosis. Nature of the assay: Antifungal activity against Candida parapsilosis ATCC 22019 assessed as reduction in fungal cell growth incubated for 48 hrs by broth microdilution method. The conditions noted are these: Lodderomyces parapsilosis, ATCC 22019, 48 h.
Assay [11] has as its system Pichia kudriavzevii. Kind of assay: Antifungal activity against Candida krusei assessed as reduction in fungal cell growth incubated for 48 hrs by broth microdilution method.
A further assay has as its system Cryptococcus neoformans. Nature of the assay: Antifungal activity against Cryptococcus neoformans LA314 assessed as reduction in fungal cell growth incubated for 48 hrs by broth microdilution method. The conditions noted are these: LA314, 48 h.
The subject of assay [12] is Candida albicans. Kind of assay: Antifungal activity against Candida albicans MTCC183 assessed as reduction in fungal cell growth incubated for 24 to 48 hrs.
Assay [13] deals with Aspergillus niger. Nature of the assay: Antifungal activity against Aspergillus niger MTCC281 assessed as reduction in fungal cell growth incubated for 24 to 48 hrs.
For assay [14], the system named is Nakaseomyces glabratus. Kind of assay: Antifungal activity against Candida glabrata NCIM 3236 assessed as reduction in fungal cell growth incubated for 24 hrs by broth microdilution method. The conditions noted are these: NCIM 3236, 24 h.
The subject of assay [15] is Candida tropicalis. Kind of assay: Potency index, ratio for MIC of fluconazole to MIC of compound for Antifungal activity against Candida tropicalis NCIM 3110 assessed as reduction in fungal cell growth incubated for 24 hrs by broth microdilution method.
In assay [16] the test system is Nakaseomyces glabratus. Kind of assay: Potency index, ratio for MIC of fluconazole to MIC of compound for antifungal activity against Candida glabrata NCIM 3236 assessed as reduction in fungal cell growth incubated for 24 hrs by broth microdilution method.
Assay [17] relates to Candida tropicalis. Nature of the assay: Antifungal activity against Candida tropicalis NCIM 3110 assessed as reduction in fungal cell growth incubated for 48 hrs by broth microdilution method. The settings on record: NCIM 3110, 48 h.
The test system of assay [18] is Candida albicans. Nature of the assay: Antifungal activity against Candida albicans MTCC 227 assessed as reduction in fungal cell growth incubated for 24 hrs by broth microdilution method. The conditions noted are these: MTCC 227, 24 h.
Assay [19] relates to Aspergillus fumigatus. Nature of the assay: Potency index, ratio for MIC of fluconazole to MIC of compound for antifungal activity against Aspergillus fumigatus.
Assay [20] relates to Aspergillus niger. Kind of assay: Potency index, ratio for MIC of fluconazole to MIC of compound for antifungal activity against Aspergillus niger.
In assay [21] the test system is Candida albicans. Nature of the assay: Antifungal activity against Candida albicans V-01-191A-261 assessed as reduction in fungal cell growth incubated for 48 hrs by broth microdilution method. The conditions noted are these: V-01-191A-261, 48 h.
For assay [22], the system named is Aspergillus flavus. Nature of the assay: Antifungal activity against Aspergillus flavus.
The subject of assay [23] is Aspergillus fumigatus. Kind of assay: Antifungal activity against Aspergillus fumigatus.
Assay [24] has as its system Candida tropicalis. Kind of assay: Antifungal activity against Candida tropicalis assessed as reduction in fungal cell growth incubated for 24 hrs by broth microdilution method.
The test system of assay [25] is Nakaseomyces glabratus. Nature of the assay: Antifungal activity against Candida glabrata assessed as reduction in fungal cell growth incubated for 24 hrs by broth microdilution method.
The test system of assay [26] is Candida albicans. Kind of assay: Antifungal activity against Candida albicans assessed as reduction in fungal cell growth incubated for 24 hrs by broth microdilution method.
The subject of assay [27] is Pichia kudriavzevii. Kind of assay: Antifungal activity against Candida krusei assessed as reduction in fungal cell growth incubated for 24 hrs by broth microdilution method.
The test system of assay [28] is Aspergillus fumigatus. Kind of assay: Antifungal activity against Aspergillus fumigatus assessed as reduction in fungal cell growth incubated for 24 and 48 hrs by broth microdilution method.
The subject of assay [29] is Candida albicans. Nature of the assay: Potency index, ratio for MIC of griseofulvin to MIC of compound for antifungal activity against Candida albicans MTCC 227 assessed as reduction in fungal cell growth incubated for 24 and 48 hrs by broth microdilution method.

For orientation: MIC means the lowest concentration found to suppress growth. As to `COC1=CC(=O)C[C@@H](C)[C@]12Oc1c(Cl)c(OC)cc(OC)c1C2=O` [GRISEOFULVIN], the MIC is 10 µg/mL (≈ 28.3 µM) in the assay with Candida albicans [1], 500 µg/mL (≈ 1420 µM) with Candida albicans [2] and 10 µg/mL (≈ 28.3 µM) in the assay on Aspergillus flavus [3].
Consider `CCC(C)n1ncn(-c2ccc(N3CCN(c4ccc(OCC5COC(Cn6cncn6)(c6ccc(Cl)cc6Cl)O5)cc4)CC3)cc2)c1=O` (centres undefined) [ITRACONAZOLE], for which the minimal inhibitory concentration (MIC) with Candida albicans [4] is 0.007 to 0.5 µg/mL (≈ 0.00992 to 0.709 µM); in the assay with Candida tropicalis [5], 0.007 to 0.5 µg/mL (≈ 0.00992 to 0.709 µM); in the assay with Aspergillus flavus [6], 6.25 µg/mL (≈ 8.86 µM); in the assay on Talaromyces marneffei, 6.25 µg/mL (≈ 8.86 µM); with Aspergillus niger [7], 0.007 to 0.5 µg/mL (≈ 0.00992 to 0.709 µM); in assay [8] it was 6.25 µg/mL (≈ 8.86 µM). For the same compound, the minimum inhibitory concentration (MIC) was 6.25 µg/mL (≈ 8.86 µM) in the assay on Aspergillus fumigatus [9]; 0.007 to 0.5 µg/mL (≈ 0.00992 to 0.709 µM) in the assay with Nakaseomyces glabratus [10]; 0.007 to 0.5 µg/mL (≈ 0.00992 to 0.709 µM) in the assay with Candida parapsilosis; 0.007 to 0.5 µg/mL (≈ 0.00992 to 0.709 µM) in the assay with Pichia kudriavzevii [11]; 0.007 to 0.5 µg/mL (≈ 0.00992 to 0.709 µM) in the assay with Cryptococcus neoformans.
Consider `c1cnc(-c2nn3nnnc3o2)cn1`, for which the values for the minimum inhibitory concentration (MIC) in the assay on Candida albicans [12] and in the assay on Aspergillus niger [13] were 50 µg/mL (≈ 264 µM) and 100 µg/mL (≈ 529 µM), respectively.
Take `Cc1cccc2c(=O)c(OCc3nnn[nH]3)c(-c3ccc(F)cc3)oc12`: the MIC with Nakaseomyces glabratus [14], with Candida tropicalis [17] and in the assay on Candida albicans [18] was 12.5 to 50 µg/mL (≈ 35.5 to 142 µM) each time. Moreover, the Ratio in the assay with Candida tropicalis [15] and with Nakaseomyces glabratus [16] was 8 - 64 in each case.
With `O=C(/C=C/c1ccc(OC(F)F)c(O)c1)c1ccc(-n2cnnn2)cc1`, the Ratio with Aspergillus fumigatus [19] and in the assay on Aspergillus niger [20] was over 4 each time.
On to `CC[C@@H]([C@H](C)O)n1ncn(-c2ccc(N3CCN(c4ccc(OC[C@@H]5CO[C@@](Cn6cncn6)(c6ccc(F)cc6F)C5)cc4)CC3)cc2)c1=O` [POSACONAZOLE], for which the MIC in the assay with Candida albicans [21], in the assay on Candida tropicalis [5], in the assay on Aspergillus niger [7], in the assay on Nakaseomyces glabratus [10], in the assay on Candida parapsilosis and with Pichia kudriavzevii [11] was 0.12 to 1 µg/mL (≈ 0.171 to 1.43 µM) each time. For the same compound, in the assay with Cryptococcus neoformans, the minimal inhibitory concentration (MIC) was in the range of 0.12 to 1 µg/mL (≈ 0.171 to 1.43 µM).
Regarding `CC[C@H]1O[C@@H](/C(C)=C/[C@H](C)/C=C/[C@@H]2[C@@H](C)[C@@H]2/C=C/[C@@H]2O[C@H](Cc3nn[nH]n3)C[C@H](N(C)C)[C@H]2O)CC=C1C`, the MIC against Aspergillus flavus [22] and in the assay on Aspergillus fumigatus [23] was 1.5 µg/mL (≈ 2.85 µM) in each case.
For `CCn1nnnc1SCCCSc1nnnn1-c1ccccc1`, the MIC (with Aspergillus flavus [6]; in the assay with Talaromyces marneffei; in assay [8]; in the assay with Aspergillus fumigatus [9]) was 6.25 to 50 µg/mL (≈ 17.9 to 143 µM) in each case.
With `Fc1cc2[nH]c(SCc3ccc(-c4ccccc4-c4nnnn4C(c4ccccc4)(c4ccccc4)c4ccccc4)cc3)nc2cc1-n1cncn1`, the minimal inhibitory concentration (MIC) in the assay with Candida tropicalis [24], in the assay on Nakaseomyces glabratus [25], with Candida albicans [26] and in the assay with Pichia kudriavzevii [27] was 4 to 8 µg/mL (≈ 5.62 to 11.2 µM) throughout.
As for `Cc1ccc2[nH]c(-c3cc4cc(Cl)ccc4n4nnnc34)nc2c1`, the MIC with Aspergillus fumigatus [28] was 125 to 1000 µg/mL (≈ 373 to 2990 µM); in the assay with Candida albicans [2], 125 µg/mL (≈ 373 µM). Besides, the Ratio in the assay with Candida albicans [29] was 4.
For the compound `C[C@@H](c1ncncc1F)[C@](O)(Cn1cncn1)c1ccc(F)cc1F` [VORICONAZOLE], the MIC in the assay with Candida albicans [21], in the assay on Candida tropicalis [5], in the assay on Aspergillus niger [7], in the assay on Nakaseomyces glabratus [10], in the assay on Candida parapsilosis and in the assay with Pichia kudriavzevii [11] was 0.015 to 0.5 µg/mL (≈ 0.0429 to 1.43 µM) throughout. Also, in the assay on Cryptococcus neoformans, the MIC lay in the range of 0.015 to 0.5 µg/mL (≈ 0.0429 to 1.43 µM).
Regarding `c1ccc(-n2nnnc2SCCCSc2nnnn2C2CC2)cc1`, the MIC (in the assay with Aspergillus flavus [6]; in the assay with Talaromyces marneffei; in assay [8]; in the assay with Aspergillus fumigatus [9]) was 6.25 to 50 µg/mL (≈ 17.3 to 139 µM) in each case.
